The values that follow come from ChEMBL document CHEMBL1137917, “Synthesis and structure-activity investigation of iodinated arylhydantoins and arylthiohydantoins for development as androgen receptor radioligands” (Bioorg Med Chem Lett, 2004).

The test has as its target T1, Androgen receptor (Rattus norvegicus, UniProt P15207).
T1 sequence (P15207 whole entry): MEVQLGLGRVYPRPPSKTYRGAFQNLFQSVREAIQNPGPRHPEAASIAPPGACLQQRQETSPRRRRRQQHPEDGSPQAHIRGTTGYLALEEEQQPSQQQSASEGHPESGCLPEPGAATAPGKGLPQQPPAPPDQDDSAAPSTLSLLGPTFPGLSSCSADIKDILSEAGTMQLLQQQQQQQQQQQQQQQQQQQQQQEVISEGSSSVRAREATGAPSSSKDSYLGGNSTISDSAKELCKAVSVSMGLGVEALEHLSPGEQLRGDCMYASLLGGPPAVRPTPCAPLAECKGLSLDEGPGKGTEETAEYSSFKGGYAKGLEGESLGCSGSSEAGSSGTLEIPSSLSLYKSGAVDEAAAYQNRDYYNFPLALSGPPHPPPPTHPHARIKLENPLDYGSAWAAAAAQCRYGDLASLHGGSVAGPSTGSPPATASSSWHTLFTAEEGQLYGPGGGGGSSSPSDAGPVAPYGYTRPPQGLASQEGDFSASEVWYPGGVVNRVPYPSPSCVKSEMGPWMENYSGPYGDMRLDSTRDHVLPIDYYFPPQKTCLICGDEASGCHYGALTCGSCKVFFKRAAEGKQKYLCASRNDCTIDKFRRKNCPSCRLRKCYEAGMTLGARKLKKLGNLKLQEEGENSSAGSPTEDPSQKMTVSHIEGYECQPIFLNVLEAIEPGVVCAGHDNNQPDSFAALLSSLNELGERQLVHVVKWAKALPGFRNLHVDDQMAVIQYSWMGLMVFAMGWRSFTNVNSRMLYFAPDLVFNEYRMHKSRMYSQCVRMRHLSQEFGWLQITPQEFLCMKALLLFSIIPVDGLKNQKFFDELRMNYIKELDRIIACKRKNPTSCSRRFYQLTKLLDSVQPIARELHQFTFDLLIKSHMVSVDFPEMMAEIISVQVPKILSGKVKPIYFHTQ
The test can be described thus: Inhibition of rat prostate cytosolic androgen receptor.
Molecule `CCCCN1C(=S)N(c2ccc(C#N)c(I)c2)C(=O)C1(C)C` had an inhibitory constant (Ki) of 117 nM. Next, `CN1C(=S)N(c2ccc(C#N)c(I)c2)C(=O)C1(C)C`: 2.5 nM; `CC1(C)C(=O)N(c2ccc(C#N)c(I)c2)C(=S)N1Cc1ccccc1`: 219 nM; `CC1(C)C(=O)N(c2ccc(C#N)c(I)c2)C(=O)N1CCCCO`: 2 nM. On to `C=CCN1C(=O)N(c2ccc(C#N)c(I)c2)C(=O)C1(C)C`, for which the Ki is 59 nM. For the molecule `CC1(C)C(=O)N(c2ccc(C#N)c(I)c2)C(=O)N1CCCc1ccccc1`, the Ki amounted to 639 nM. For the molecule `COCCN1C(=S)N(c2ccc(C#N)c(I)c2)C(=O)C1(C)C`, the affinity corresponds to a Ki of 37 nM. `CCCCN1C(=O)N(c2ccc(C#N)c(I)c2)C(=O)C1(C)C` had a Ki of 77 nM.

A word on the Ki: it is the equilibrium dissociation constant of an inhibitor or competing ligand from its target. Read a high Ki as lower affinity.
